Patent US20030134859A1 (SANKYO COMPANY, LIMITED, priority 2000, published 2003)
Structures can show the parent of a compound that is named as a salt.

target: T1, human PPAR γ 2 (Homo sapiens, UniProt P37231); test: Inhibitory activity against PPAR γ transcription in the presence of agonist compound A, luciferase reporter; assay type: cell-based; details: in the presence of 10 nM compound A (agonist); MG63 cells transfected with pSG5-hPPARg and pGV-P2-PPRE; 24 hr
T1 construct: expressed in transfected cells; host or cells: human osteosarcoma MG63, transiently co-transfected with pSG5-hPPARg and the reporter pGV-P2-PPRE
T1 sequence (P37231 1-505): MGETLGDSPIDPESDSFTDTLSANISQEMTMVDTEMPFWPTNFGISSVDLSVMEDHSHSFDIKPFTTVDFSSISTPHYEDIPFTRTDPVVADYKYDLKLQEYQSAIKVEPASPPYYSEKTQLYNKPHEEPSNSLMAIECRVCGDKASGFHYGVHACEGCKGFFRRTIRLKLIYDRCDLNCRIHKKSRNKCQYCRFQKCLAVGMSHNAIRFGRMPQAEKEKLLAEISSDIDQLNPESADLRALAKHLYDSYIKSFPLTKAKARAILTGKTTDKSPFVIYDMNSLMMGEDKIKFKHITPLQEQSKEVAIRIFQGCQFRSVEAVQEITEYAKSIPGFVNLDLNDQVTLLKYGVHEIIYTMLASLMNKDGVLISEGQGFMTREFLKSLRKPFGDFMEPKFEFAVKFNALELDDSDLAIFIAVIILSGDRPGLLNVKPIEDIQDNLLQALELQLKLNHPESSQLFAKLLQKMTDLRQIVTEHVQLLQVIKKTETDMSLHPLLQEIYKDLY

Row | Molecule | IC50
1 | CC(=O)Nc1ccc(NC(=O)c2cc([N+](=O)[O-])ccc2Cl)cc1 [Example 117, N-(4-Acetylaminophenyl)-(2-chloro-5-nitrophenyl)carboxamide] | 120 nM
2 | O=C(Nc1ccc(NC(=O)c2cc([N+](=O)[O-])ccc2Cl)cc1)c1ccncc1 [Example 125, N-[4-(Pyridin-4-ylcarbonylamino)phenyl]-(2-chloro-5-nitrophenyl)carboxamide] | 240 nM
3 | CN(C)c1cccc(NC(=O)c2cc([N+](=O)[O-])ccc2Cl)c1 [Example 176, N-(3-Dimethylamino)phenyl-(2-chloro-5-nitrophenyl)carboxamide] | 66 nM
4 | O=C(Nc1ccc(S(=O)(=O)Nc2cccnc2)cc1)c1cc([N+](=O)[O-])ccc1Cl [Example 178] | 330 nM
5 | CCCCCCN(C)c1ccc(-c2ccc(NC(=O)c3cc([N+](=O)[O-])ccc3Cl)cc2)cc1 [Example 196, N-[4-[4-(N-Hexyl-N-methylamino)phenyl]phenyl]-(2-chloro-5-nitrophenyl)carboxamide] | 990 nM
6 | CCCCCCN(CC)c1ccc(-c2ccc(NC(=O)c3cc([N+](=O)[O-])ccc3Cl)cc2)cc1 [Example 197, N-[4-[4-(N-Ethyl-N-hexylamino)phenyl]phenyl]-(2-chloro-5-nitrophenyl)carboxamide] | 280 nM
7 | CCCCCCCCN(CCCC)c1ccc(-c2ccc(NC(=O)c3cc([N+](=O)[O-])ccc3Cl)cc2)cc1 [Example 222, N-[4-[4-(N-Butyl-N-octylamino)phenyl]phenyl]-(2-chloro-5-nitrophenyl)carboxamide] | 160 nM
8 | CCCCCCCCN(CCCC)c1ccc(-c2ccc(NC(=O)c3cc([N+](=O)[O-])ccc3Cl)cc2)cc1.Cl [Example 223, N-[4-[4-(N-Butyl-N-octylamino)phenyl]phenyl]-(2-chloro-5-nitrophenyl)carboxamide mono-hydrochloride] | 89 nM
9 | CCCCCCCCN(CCC)c1ccc(-c2ccc(NC(=O)c3cc([N+](=O)[O-])ccc3Cl)cc2)cc1 [Example 224, N-[4-[4-(N-Octyl-N-propylamino)phenyl]phenyl]-(2-chloro-5-nitrophenyl)carboxamide] | 79 nM
10 | CCCCCCCCN(CC)c1ccc(-c2ccc(NC(=O)c3cc([N+](=O)[O-])ccc3Cl)cc2)cc1 [Example 225, N-[4-[4-(N-Ethyl-N-octylamino)phenyl]phenyl]-(2-chloro-5-nitrophenyl)carboxamide] | 190 nM
11 | O=C(Nc1ccc(N2CCN(C(=O)c3ccncc3)CC2)cc1)c1cc([N+](=O)[O-])ccc1Cl [Example 228, N-[4-[4-(Pyridin-4-ylcarbonyl)piperazin-1-yl]phenyl]-(2-chloro-5-nitrophenyl)carboxamide] | 130 nM
12 | O=C(Nc1ccc(-n2ccnc2)cc1)c1cccc(NC(=O)c2cc([N+](=O)[O-])ccc2Cl)c1 [Example 231, N-[[3-[4-(Imidazol-1-yl)phenyl]aminocarbonyl]phenyl]-(2-chloro-5-nitrophenyl)carboxamide] | 60 nM
13 | CCN(c1ccc(NS(=O)(=O)c2ccc(NC(=O)c3cc([N+](=O)[O-])ccc3Cl)cc2)cc1)C(C)C [Example 232, N-[[4-[4-(N-Ethyl-N-isopropylamino)phenyl]aminosulfonyl]phenyl]-(2-chloro-5-nitrophenyl)carboxamide] | 56 nM
14 | CC(C)(C)OC(=O)Nc1cccc(-c2csc(NC(=O)c3cc([N+](=O)[O-])ccc3Cl)n2)c1 [Example 234, N-[4-(3-tert-Butoxycarbonylaminophenyl)thiazol-2-yl]-(2-chloro-5-nitrophenyl)carboxamide] | 19 nM
15 | O=C(Nc1ccc(NC(=S)Nc2cccnc2)cc1)c1cc([N+](=O)[O-])ccc1Cl [Example 257, N-[4-[(Pyridin-3-yl)aminothiocarbonylamino]phenyl]-(2-chloro-5-nitrophenyl)carboxamide] | 130 nM
16 | NCCc1ccc(NC(=O)c2cc([N+](=O)[O-])ccc2Cl)cc1 [Example 267, N-[4-(2-Aminoethyl)phenyl]-(2-chloro-5-nitrophenyl)carboxamide] | 60 nM

The remaining molecules from weak to strong by IC50, led by results:

Row | IC50 | Molecule
17 | 56 nM | O=C(Nc1ccc(S(=O)(=O)Nc2ccc(N3CCOCC3)cc2)cc1)c1cc([N+](=O)[O-])ccc1Cl [Example 179, N-[4-[4-(Morpholin-4-yl)phenyl]aminosulfonyl]phenyl-(2-chloro-5-nitrophenyl)carboxamide]
18 | 52 nM | CC(O)c1cccc(NC(=O)c2cc([N+](=O)[O-])ccc2Cl)c1 (centres unmarked) [Example 239, N-[3-(1-Hydroxyethyl)phenyl]-(2-chloro-5-nitrophenyl)carboxamide]
19 | 46 nM | N-(Ethoxyphenyl)-(2-chloro-5-nitrophenyl)carboxamide [Example 229]
20 | 42 nM | N-[4-(Pyrrolidinylsulfonyl)phenyl]-(2-chloro-5-nitrophenyl)carboxamide [Example 152]
21 | 36 nM | O=C(Nc1ccc(NC(=O)c2cc([N+](=O)[O-])ccc2Cl)cc1)c1ccccc1 [Example 119, N-(4-Benzoylaminophenyl)-(2-chloro-5-nitrophenyl)carboxamide]
22 | 31 nM | O=C(Nc1ccc(NC(=S)Nc2ccncc2)cc1)c1cc([N+](=O)[O-])ccc1Cl [Example 259, N-[4-[(Pyridin-4-yl)aminothiocarbonylamino]phenyl]-(2-chloro-5-nitrophenyl)carboxamide]
23 | 30 nM | O=C(Nc1cccc(O)c1)c1cc([N+](=O)[O-])ccc1Cl [Example 191, N-(3-Hydroxyphenyl)-(2-chloro-5-nitrophenyl)carboxamide]
24 | 28 nM | Nc1nc(-c2cccc(NC(=O)c3cc([N+](=O)[O-])ccc3Cl)c2)cs1 [Example 233, N-[3-(2-Amiothiazol-4-yl)phenyl]-(2-chloro-5-nitrophenyl)carboxamide]
25 | 25 nM | O=C(Nc1ccc(-c2ccc(NC(=S)Nc3ccncc3)cc2)cc1)c1cc([N+](=O)[O-])ccc1Cl [Example 258, N-[4-[4-[(Pyridin-4-yl)aminothiocarbonylamino]phenyl]phenyl]-(2-chloro-5-nitrophenyl)carboxamide]
26 | 23 nM | CC(C)(C)c1cc(C(=O)Nc2ccc(NC(=O)c3cc([N+](=O)[O-])ccc3Cl)cc2)cc(C(C)(C)C)c1O [Example 157, N-[4-[(3,5-di-tert-Butyl-4-hydroxybenzoyl)amino]phenyl]-(2-chloro-5-nitrophenyl)carboxamide]
27 | 20 nM | CCCCCCN(CCCCCC)c1ccc(NC(=O)c2cc([N+](=O)[O-])ccc2Cl)cc1 [Example 138, N-[4-(N,N-di-n-Hexylamino)phenyl]-(2-chloro-5-nitrophenyl)carboxamide]
28 | 20 nM | CCCNc1ccc(NC(=O)c2cc([N+](=O)[O-])ccc2Cl)cc1 [Example 181, N-[4-(N-Propylamino)phenyl]-(2-chloro-5-nitrophenyl)carboxamide]
29 | 19 nM | O=C(Nc1ccc(CCO)cc1)c1cc([N+](=O)[O-])ccc1Cl [Example 230, N-[4-(2-Hydroxyethyl)phenyl]-(2-chloro-5-nitrophenyl)carboxamide]
30 | 19 nM | CS(=O)(=O)N(c1ccc(-c2ccc(NC(=O)c3cc([N+](=O)[O-])ccc3Cl)cc2)cc1)S(C)(=O)=O [Example 235, N-[4-[4-(N,N-Dimethanesulfonylamino)phenyl]phenyl]-(2-chloro-5-nitrophenyl)carboxamide]
31 | 18 nM | CCCCCCNc1ccc(-c2ccc(NC(=O)c3cc([N+](=O)[O-])ccc3Cl)cc2)cc1 [Example 195, N-[4-[4-(N-Hexylamino)phenyl]phenyl]-(2-chloro-5-nitrophenyl)carboxamide]
32 | 18 nM | CCCCCCCCN(CCCCCC)c1ccc(-c2ccc(NC(=O)c3cc([N+](=O)[O-])ccc3Cl)cc2)cc1 [Example 220, N-[4-[4-(N-Hexyl-N-octylamino)phenyl]phenyl]-(2-chloro-5-nitrophenyl)carboxamide mono-hydrochloride]
33 | 13 nM | O=C(Nc1ccc(CCNC(=S)Nc2cccnc2)cc1)c1cc([N+](=O)[O-])ccc1Cl [Example 273, N-[4-[2-(Pyridin-3-yl)aminothiocarbonylaminoethyl]phenyl]-(2-chloro-5-nitrophenyl)carboxamide]
34 | 8.3 nM | CCCCCCCCNc1ccc(-c2ccc(NC(=O)c3cc([N+](=O)[O-])ccc3Cl)cc2)cc1 [Example 219, N-[4-[4-(N-Octylamino)phenyl]phenyl]-(2-chloro-5-nitrophenyl)carboxamide]
35 | 3.6 nM | CCCN(CC)c1ccc(NC(=O)c2cc([N+](=O)[O-])ccc2Cl)cc1 [Example 189, N-[4-(N-Ethyl-N-propylamino)phenyl]-(2-chloro-5-nitrophenyl)carboxamide]
